In ChEMBL document CHEMBL1158448, “Synthesis and antinociceptive activity of pyrazolyl isoxazolines and pyrazolyl isoxazoles” (2009) one finds Activity data, which are given here for 14 molecules.

Structures are written as SMILES.

The subject of experiment [1] is Mus musculus. Kind of experiment: Antinociceptive activity in Swiss albino mouse assessed as protection against acetic acid-induced abdominal constriction at 15 mg/kg, po measured for 10 mins after 5 mins of acetic acid challenge relative to control. Format: functional, Abdomen.
Experiment [2] deals with Rattus norvegicus. Briefly: Antinociceptive activity in Wistar albino rat assessed as latency in reaction time required for thermal stimulus-induced tail flicking at 15 mg/kg, po after 30 mins by analgesiometric analysis (RVb=3.33 +/- 0.21 seconds). Format: functional.
For experiment [3], the system named is Rattus norvegicus. Kind of experiment: Antinociceptive activity in Wistar albino rat assessed as latency in reaction time required for thermal stimulus-induced tail flicking at 30 mg/kg, po after 120 mins by analgesiometric analysis (RVb=3.33 +/- 0.21 seconds). Format: functional.
The subject of experiment [4] is Rattus norvegicus. Briefly: Antinociceptive activity in Wistar albino rat assessed as latency in reaction time required for thermal stimulus-induced tail flicking at 30 mg/kg, po after 180 mins by analgesiometric analysis (RVb=3.16 +/- 0.16 seconds). The class given is functional.
The subject of experiment [5] is Rattus norvegicus. Briefly: Antinociceptive activity in Wistar albino rat assessed as latency in reaction time required for thermal stimulus-induced tail flicking at 15 mg/kg, po after 60 mins by analgesiometric analysis (RVb=3.16 +/- 0.16 seconds). Format: functional.
Experiment [6] deals with Rattus norvegicus. Briefly: Antinociceptive activity in Wistar albino rat assessed as latency in reaction time required for thermal stimulus-induced tail flicking at 30 mg/kg, po after 30 mins by analgesiometric analysis (RVb=3.33 +/- 0.21 seconds). The class given is functional.
In experiment [7] the test system is Rattus norvegicus. Kind of experiment: Antinociceptive activity in Wistar albino rat assessed as latency in reaction time required for thermal stimulus-induced tail flicking at 15 mg/kg, po after 180 mins by analgesiometric analysis (RVb=3.16 +/- 0.16 seconds). The class given is functional.
The test system of experiment [8] is Mus musculus. Briefly: Antinociceptive activity in Swiss albino mouse assessed as protection against acetic acid-induced abdominal constriction at 30 mg/kg, po measured for 10 mins after 5 mins of acetic acid challenge relative to control. Format: functional, Abdomen.
Experiment [9] has as its system Rattus norvegicus. Briefly: Antinociceptive activity in Wistar albino rat assessed as latency in reaction time required for thermal stimulus-induced tail flicking at 15 mg/kg, po after 120 mins by analgesiometric analysis (RVb=3.33 +/- 0.21 seconds). The class given is functional.
Experiment [10] concerns Rattus norvegicus. Briefly: Antinociceptive activity in Wistar albino rat assessed as latency in reaction time required for thermal stimulus-induced tail flicking at 30 mg/kg, po after 60 mins by analgesiometric analysis (RVb=3.16 +/- 0.16 seconds). Format: functional.

Take `CCOc1ccc(-c2nn(-c3ccccc3)cc2C2=NOC3C(=O)N(C)C(=O)C23)cc1` (stereo not given): the Activity was 22.75% with Mus musculus [1]; 3.16 s in the experiment on Rattus norvegicus [2]; 6 s in the experiment on Rattus norvegicus [3]; 5.83 s in the experiment with Rattus norvegicus [4]; 4 s with Rattus norvegicus [5]; 3.83 s with Rattus norvegicus [6]. Besides, the Activity came out at 3.5 s in the experiment with Rattus norvegicus [7], 47.46% in the experiment on Mus musculus [8], 3.83 s with Rattus norvegicus [9] and 6.16 s in the experiment with Rattus norvegicus [10].
Take `O=C1C2ON=C(c3cn(-c4ccccc4)nc3-c3ccc(Br)cc3)C2C(=O)N1c1ccccc1` (stereo not given): the Activity in the experiment with Mus musculus [1] was determined as 2.75%; in the experiment with Rattus norvegicus [2], 3.16 s; in the experiment with Rattus norvegicus [3], 6.83 s; with Rattus norvegicus [4] it was 6.5 s; with Rattus norvegicus [5] it was 3.66 s; with Rattus norvegicus [6] it was 3.16 s. Moreover, the Activity in the experiment on Rattus norvegicus [7] turned out to be 3.33 s; in the experiment with Mus musculus [8] it was 49.04%; in the experiment on Rattus norvegicus [9] it was 3.66 s; in the experiment on Rattus norvegicus [10], 7 s.
For `Brc1ccc(-c2nn(-c3ccccc3)cc2-c2cc(-c3ccccc3)on2)cc1`, the Activity in the experiment with Mus musculus [1] came to 14.52%; in the experiment with Rattus norvegicus [2], 3.16 s; in the experiment with Rattus norvegicus [3], 5.66 s; in the experiment with Rattus norvegicus [4] it was 5.16 s; in the experiment on Rattus norvegicus [5], 3.23 s; in the experiment on Rattus norvegicus [6] it was 3.33 s. For the same molecule, the Activity with Rattus norvegicus [7] is listed as 3.5 s; with Mus musculus [8], 31.39%; in the experiment on Rattus norvegicus [9], 3.66 s; in the experiment on Rattus norvegicus [10], 5.83 s.
Turning to `CCCCc1cc(-c2cn(-c3ccccc3)nc2-c2ccc(Cl)cc2)no1`, the Activity is listed as 12.56% in the experiment with Mus musculus [1]; 3.16 s in the experiment on Rattus norvegicus [2]; 6.6 s with Rattus norvegicus [3]; 6.16 s with Rattus norvegicus [4]; 3.66 s with Rattus norvegicus [5]; 3.33 s in the experiment on Rattus norvegicus [6]. Further, the Activity was found to be 3.33 s in the experiment with Rattus norvegicus [7], 47.09% in the experiment on Mus musculus [8], 3.5 s in the experiment with Rattus norvegicus [9] and 6.83 s in the experiment on Rattus norvegicus [10].
`Cc1ccc(N2C(=O)C3ON=C(c4cn(-c5ccccc5)nc4-c4ccc(Cl)cc4)C3C2=O)cc1` (stereo not given): the Activity with Mus musculus [1] was found to be 22.75%; in the experiment on Rattus norvegicus [2] it was 3.33 s; with Rattus norvegicus [3], 5.16 s; in the experiment with Rattus norvegicus [4], 4.5 s; in the experiment on Rattus norvegicus [5], 3.66 s; in the experiment with Rattus norvegicus [6] it was 3.33 s. Besides, the Activity with Rattus norvegicus [7] is on record as 3.33 s; with Mus musculus [8] it was 42.75%; with Rattus norvegicus [9], 3.33 s; in the experiment with Rattus norvegicus [10] it was 5.33 s.
Consider `O=C1C2ON=C(c3cn(-c4ccccc4)nc3-c3ccc(Cl)cc3)C2C(=O)N1c1ccccc1` (stereo not given), for which the Activity stood at 23.93% in the experiment on Mus musculus [1]; 3.33 s in the experiment on Rattus norvegicus [2]; 6 s in the experiment on Rattus norvegicus [3]; 5.5 s with Rattus norvegicus [4]; 4.16 s with Rattus norvegicus [5]; 3.33 s in the experiment with Rattus norvegicus [6]. For the same molecule, the Activity was determined as 3.66 s in the experiment on Rattus norvegicus [7], 43.15% in the experiment on Mus musculus [8], 4 s with Rattus norvegicus [9] and 6.16 s in the experiment on Rattus norvegicus [10].
`CCOC(=O)c1onc(-c2cn(-c3ccccc3)nc2-c2ccc(OC)cc2)c1C(=O)OCC`: the Activity in the experiment with Mus musculus [1] was determined as 11.39%; in the experiment on Rattus norvegicus [2], 3.33 s; in the experiment on Rattus norvegicus [3], 7.66 s; in the experiment on Rattus norvegicus [4], 7 s; in the experiment with Rattus norvegicus [5] it was 5 s; with Rattus norvegicus [6], 3.83 s. In addition, the Activity with Rattus norvegicus [7] is 4 s; in the experiment with Mus musculus [8], 57.65%; in the experiment on Rattus norvegicus [9] it was 4.33 s; in the experiment with Rattus norvegicus [10], 7.83 s.
Consider `COc1ccc(-c2nn(-c3ccccc3)cc2-c2cc(-c3ccccc3)on2)cc1`, for which the Activity in the experiment with Mus musculus [1] turned out to be 11.77%; in the experiment with Rattus norvegicus [2], 3.16 s; with Rattus norvegicus [3], 5.83 s; with Rattus norvegicus [4] it was 5.33 s; in the experiment with Rattus norvegicus [5], 4.16 s; in the experiment with Rattus norvegicus [6] it was 3.33 s. In addition, the Activity came to 3.5 s with Rattus norvegicus [7], 30.99% with Mus musculus [8], 4 s in the experiment on Rattus norvegicus [9] and 6 s in the experiment with Rattus norvegicus [10].
Regarding `O=C1C2ON=C(c3cn(-c4ccccc4)nc3-c3ccccc3)C2C(=O)N1c1ccccc1` (stereo not given), the Activity with Mus musculus [1] turned out to be 30.58%; with Rattus norvegicus [2] it was 3.16 s; in the experiment with Rattus norvegicus [3], 6.66 s; in the experiment with Rattus norvegicus [4], 5.66 s; with Rattus norvegicus [5] it was 3.5 s; with Rattus norvegicus [6] it was 3.33 s. In addition, the Activity with Rattus norvegicus [7] amounted to 3.33 s; with Mus musculus [8], 47.39%; in the experiment with Rattus norvegicus [9], 3.33 s; with Rattus norvegicus [10], 6.83 s.
In the case of `CCOc1ccc(-c2nn(-c3ccccc3)cc2C2=NOC3C(=O)N(c4ccccc4)C(=O)C23)cc1` (stereo not given), the Activity in the experiment on Mus musculus [1] turned out to be 12.16%; in the experiment with Rattus norvegicus [2] it was 3.16 s; with Rattus norvegicus [3], 6.16 s; with Rattus norvegicus [4], 5.83 s; in the experiment on Rattus norvegicus [5], 3.16 s; in the experiment with Rattus norvegicus [6], 3.16 s. The Activity with Rattus norvegicus [7] worked out at 3.5 s; in the experiment with Mus musculus [8] it was 49.51%; with Rattus norvegicus [9], 3.5 s; in the experiment on Rattus norvegicus [10], 6.83 s.
As for `CCOC(=O)c1onc(-c2cn(-c3ccccc3)nc2-c2ccc(Br)cc2)c1C(=O)OCC`, the Activity in the experiment on Mus musculus [1] turned out to be 12.94%; in the experiment on Rattus norvegicus [2], 3.33 s; in the experiment on Rattus norvegicus [3] it was 8 s; in the experiment with Rattus norvegicus [4], 7.5 s; in the experiment with Rattus norvegicus [5], 4 s; in the experiment with Rattus norvegicus [6], 3.33 s. Further, the Activity was found to be 3.5 s in the experiment with Rattus norvegicus [7], 56.87% in the experiment with Mus musculus [8], 3.83 s in the experiment with Rattus norvegicus [9] and 8.16 s in the experiment with Rattus norvegicus [10].
As to `CN1C(=O)C2ON=C(c3cn(-c4ccccc4)nc3-c3ccccc3)C2C1=O` (stereo not given), the Activity is given as 1.17% in the experiment on Mus musculus [1]; 3.16 s in the experiment with Rattus norvegicus [2]; 5 s in the experiment with Rattus norvegicus [3]; 4.83 s in the experiment on Rattus norvegicus [4]; 3.5 s with Rattus norvegicus [5]; 3.33 s with Rattus norvegicus [6]. The Activity in the experiment on Rattus norvegicus [7] is listed as 3.33 s; with Mus musculus [8], 30.58%; in the experiment with Rattus norvegicus [9], 3.5 s; with Rattus norvegicus [10], 5.16 s.
`CN1C(=O)C2ON=C(c3cn(-c4ccccc4)nc3-c3ccc(Cl)cc3)C2C1=O` (stereo not given): the Activity with Mus musculus [1] worked out at 7.84%; in the experiment with Rattus norvegicus [2], 3.16 s; with Rattus norvegicus [3], 6.5 s; with Rattus norvegicus [4], 5.5 s; with Rattus norvegicus [5], 4 s; in the experiment with Rattus norvegicus [6] it was 3.33 s. Besides, the Activity stood at 3.66 s with Rattus norvegicus [7], 23.15% with Mus musculus [8], 3.83 s in the experiment on Rattus norvegicus [9] and 6.66 s in the experiment on Rattus norvegicus [10].
In the case of `CCOC(=O)c1onc(-c2cn(-c3ccccc3)nc2-c2ccc(Cl)cc2)c1C(=O)OCC`, the Activity in the experiment with Mus musculus [1] is 17.27%; in the experiment on Rattus norvegicus [2], 3.33 s; with Rattus norvegicus [3], 8.33 s; in the experiment with Rattus norvegicus [4], 7.5 s; in the experiment with Rattus norvegicus [5], 4.33 s; in the experiment with Rattus norvegicus [6] it was 3.83 s. Besides, the Activity in the experiment on Rattus norvegicus [7] was 4 s; in the experiment with Mus musculus [8] it was 55.29%; in the experiment on Rattus norvegicus [9], 4.16 s; in the experiment with Rattus norvegicus [10], 8.66 s.
